Measured values as given in paper PMC5349917, “Octreotide-periplocymarin conjugate prodrug for improving targetability and anti-tumor efficiency: synthesis, in vitro and in vivo evaluation” (Oncotarget, 2016).
Where “and” joins values, the source holds several entries; their conditions need not be identical. Identical values can stand only once. Like-named read-outs stand apart in the source and are kept apart here.

Columns and labels:
[1] = system: HepG2 hepatoma cells; test: MTT growth inhibition assay, HepG2 cells; assay type: cell-based, human
Experimental: (§1) To test the antitumor activities of the synthesized compounds, we evaluated antiproliferative activities of these compounds against human cancer cell lines (Breast cancer cells, MCF-7; Hepatoma cells, HepG2) and human normal cell line (Liver cells, L-02), using the MTT assay as reported in previous studies. Both cell lines were obtained from the Cell Bank of Academy of Science (Shanghai, China).
(§2) After incubation, 20 μL of MTT (5 mg/mL in pH 7.4 PBS) was added to each well, and the plates further incubated at 37°C for 4 h. The medium was then replaced with 100 μL DMSO. The optical density was measured by Microplate Reader (Thermo Electron Corporation) at 595 nm.
(§3) Statistical significance of differences between treatment groups in the biodistribution and anti-tumor effect were assessed using an unpaired Student’s t-test. A p-value of less than 0.05 was considered significant.

[2] = system: H22 tumor; test: Anti-tumor efficacy in H22 tumor-bearing mice; assay type: in vivo, mouse; details: H22 tumor Kunming mice, 5 times; for final tumor weight: control 0.876 ± 0.154 g
Experimental: (§4) Treatment was initiated when the tumor diameter reached about 0.5 cm (around 3 days). Mice were randomly assigned to four groups (n = 6) namely the control, PPM, OCT and OCT(Phe)-S-PPM groups. Treatment were administered via tail vein at a dose of 4 mg/kg every other day during the experimental period for 5 times. The control group received corresponding amounts of blank injection (ethanol/Cremophor EL, v/v, 1/1, diluted 20 times with normal saline before the injection). Their weights were measured daily and tumor size was measured (major and minor axis) with a vernier caliper thereafter and at the end of the experiment. Tumor volumes were calculated using the formula: a^2×b×0.52, where a and b refer to the longest and shortest diameter, respectively. Tumor tissues were removed from the sacrificed mice and weighed to calculate the tumor inhibition rate (TIR (%) = (1-Wt/Wc) × 100%, where Wt and Wc are the mean tumor weights of the treated groups and the negative control group, respectively. Moreover, the heart, liver and tumor were rinsed with normal saline, fixed in 10% formalin, and then embedded in paraffin blocks for later slicing and staining with hematoxylin and eosin (H&E). Finally, the sections were observed under a microscope for histopathological evaluations

[3] = Toxicity in H22 tumor-bearing mice (serum AST, ALT, ALP, body weight, heart and liver histopathology); assay type: in vivo, mouse; details: for pathological images of heart sections / pathological images of liver sections: HE staining, after treatment for ten days; for ALT / AST / ALP: serum, mice sacrificed 24 h after the last administration; for ALT: control 26.86 ± 6.44; for AST: control 50.55 ± 8.82; for ALP: control 112.06 ± 14.29
Experimental: as §4

[4] = Tissue distribution in H22 cell tumor bearing mice; assay type: in vivo, mouse; details: for AUC0–t Heart / AUC0–t Kidney / AUC0–t Liver / AUC0–t Lung / AUC0–t Plasma / AUC0–t Spleen / AUC0–t Tumor: level of PPM, 4 mg/kg (PPM or equivalent), H22 tumor-bearing mice, 0-4 h
Experimental: Male Kunming strain mice (KM, 18–22 g) were purchased from Qinglongshan, Experimental Animal Center (ZhenJiang, China). Animal experiments were conducted under principles of good laboratory animal care, and approved by the Ethical Committee for Laboratory Animals Care and Use of Jiangsu University. Mouse […] (H22) cells were purchased from the Cell Bank of Academy of Science (Shanghai, China).
Approximately 1 × 10^7 H22 cells suspended in PBS (pH 7.4) were inoculated subcutaneously into the right hind leg. When the tumor volume reached 1000 mm^3 (around 7 days), mice were intravenously injected with PPM (at a dose of 4 mg/kg) or its equivalent OCT(Phe)-S-PPM via the tail vein (n = 5). At indicated time periods (0.16, 0.50, 1, 2, 3 and 4 h) after injection, blood samples were collected and mice were then sacrificed by cervical dislocation to obtain the heart, liver, spleen, lung, kidney and tumor tissues. All the samples were then washed with ice-cold saline to remove the excess fluid, weighed and stored at –20°C. The thawed tissue was homogenized in 0.9% sodium chloride solution to obtain 0.2 g/mL tissues homogenate. This was followed by the addition of bufalin (50 μl, 5 μg/ml) to the tissues (0.2 ml) with uniform mixing. Ethyl acetate (1.2 ml) was then added to the resulting mixture and thoroughly mixed for 5 min. The total supernatant or organic layer was separated by centrifugation at 3000 rpm for 10 min and transferred to a clean tube. The supernatant was dried with nitrogen at 40°C on water bath to obtain the residue, which was later reconstituted in a 0.2 mL of mobile phase solution. After centrifugation at 20,000 rpm for 10 min, the supernatant was analyzed by HPLC. The mobile phase consisted of acetonitrile and water (38:62, v/v, pH = 3.0, adjusted by H3PO4). The flow rate was 1.0 mL·min^-1 and the detection wavelength was 220 nm. Other conditions included injection volume (20 μl), column temperature (25°C) and detection sensitivity (0.02 AUFS). The retention time of PPM and Bufalin was about 7.2 and 10.8 min, respectively. The calibration curve was A = 0.9958C-0.0299 (A represented the peak area ratio of PPM and Bufalin, while C was the concentration of PPM) and was linear in the range of 0.05–10 μg/mL with a correlation coefficient of R = 0.9995.

[5] = system: L-02 cells; test: cells; assay type: cell-based, human
Experimental: as §1
(§5) In brief, the cells were seeded into a 96-well plate at a density of 2.5 × 10^4 cells/well and incubated with OCT modified PPMs containing various concentrations (ranging from 0.001 to 50.0 μM) for 72 h. After incubation, 20 μL of MTT (5 mg/mL in pH 7.4 PBS) was added to each well, and the plates further incubated at 37°C for 4 h. The medium was then replaced with 100 μL DMSO. The optical density was measured by Microplate Reader (Thermo Electron Corporation) at 595 nm. The cell inhibition rate (IR) was calculated as follows: IR (%) = 1−A/A1×100%, where A refers to the average absorbance intensity of treated group and A1 refers to average absorbance intensity of untreated control group (the vehicle control group).
(§6) Statistical significance of differences between treatment groups in the biodistribution and anti-tumor effect were assessed using an unpaired Student’s t-test. A p-value of less than 0.05 was considered significant. 50% inhibiting concentration (IC50) of the sample was calculated with the aid of Curve-Expert software (version 1.3; Daniel G. Hyams, Hixson, TN, USA).

[6] = cited from earlier work
[7] = system: MCF-7 breast cancer cells; test: MTT growth inhibition assay, MCF-7 cells; assay type: cell-based, human
Experimental: as §1, §2, §3

[8] = system: MFC murine gastric carcinoma cells; test: In vitro cytotoxicity on MFC cells; assay type: cell-based, mouse; details: 72 h of incubation
Experimental: as §5, §6

[9] = system: PC3, U937, HCT-8, Bel-7402, BGC823, A549 and A2780 cell lines; set-up: method as in PMID 17366373; details: PC3, U937, HCT-8, Bel-7402, BGC823, A549 and A2780 cell lines in vitro; read-out: IC50 values, inhibition of proliferation; cited from earlier work
[10] = MTT, 72 h of incubation, read-out: IC50 MCF-7

| Molecule | final tumor weight ([2]; 4 mg/kg i.v. every other day) | pathological images of heart sections [3] | pathological images of liver sections [3] | ALT [3] | AST [3] | ALP [3] | AUC0–t Heart ([4]; i.v.) | AUC0–t Kidney ([4]; i.v.) | AUC0–t Liver ([4]; i.v.) | AUC0–t Lung ([4]; i.v.) | AUC0–t Plasma ([4]; i.v.) | AUC0–t Spleen ([4]; i.v.) | AUC0–t Tumor ([4]; i.v., 4 mg/kg) | IC50 [7, 10] | further results |
| --- | --- | --- | --- | --- | --- | --- | --- | --- | --- | --- | --- | --- | --- | --- | --- |
| CO[C@H]1C[C@H](O[C@H]2CC[C@]3(C)[C@H]4CC[C@]5(C)[C@@H](C6=CC(=O)OC6)CC[C@]5(O)[C@@H]4CC[C@]3(O)C2)O[C@H](C)[C@H]1OC(=O)CCC(=O)N[C@H](Cc1ccccc1)C(=O)N[C@H]1CSSC[C@@H](C(=O)N[C@H](CO)[C@@H](C)O)NC(=O)[C@H]([C@@H](C)O)NC(=O)[C@H](CCCCN)NC(=O)[C@@H](Cc2c[nH]c3ccccc23)NC(=O)[C@H](Cc2ccccc2)NC1=O [OCT(Phe)-S-PPM] | 0.287 ± 0.069 g | no evident differences from the control group | no evident differences from the control group | 23.25 ±5.76 U/L | 56.83 ± 7.34 U/L | 124.90 ± 27.23 U/L | 1.315 ± 0.239 µg·h/g | 1.152 ± 0.132 µg·h/g | 1.441 ± 0.202 µg·h/g | 0.839 ± 0.083 µg·h/g | 1.409 ± 0.196 µg·h/g | 0.632 ± 0.079 µg·h/g | 1.338 µg·h/g and 1.338 ± 0.195 µg·h/g | – | enhancement of cytotoxicity of PPM when conjugated with Phe-OCT ([1]; HepG2, vs PPM): 1.88 fold; reduction of tumor volume compared to PPM (average) ([2]; equimolar dose of PPM 4 mg/kg, i.v. every other day): 1.56 fold; concentration in tumor tissue ([4]; 15 min post injection, i.v.): 0.168 µg/g; maximum concentration in tumor tissue ([4]; i.v., reached at 1 h): 0.618 µg/g; AUC0–t in plasma, fold higher than that of PPM ([4]; i.v., vs PPM): 1.73 fold; AUC0–t in tumor, fold higher than that of PPM ([4]; i.v., vs PPM): 2.17 fold; total AUC0~t of heart, fold lower than that of PPM ([4]; i.v., vs PPM, P < 0.01): 0.77 fold; total AUC0~t of liver, fold lower than that of PPM ([4]; i.v., vs PPM, P < 0.01): 0.73 fold |
| C[C@@H](O)[C@@H]1NC(=O)[C@H](CCCCN)NC(=O)[C@@H](Cc2c[nH]c3ccccc23)NC(=O)[C@H](Cc2ccccc2)NC(=O)[C@@H](NC(=O)[C@H](N)Cc2ccccc2)CSSC[C@@H](C(=O)N[C@H](CO)[C@@H](C)O)NC1=O [OCT, Octreotide] | 0.765 ± 0.126 g | – | – | 34.48 ± 6.28 U/L | 51.25 ± 5.2 U/L | 129.48 ± 18.54 U/L | – | – | – | – | – | – | – | – | IC50 ([5]; 72 h): > 50 µM; IC50 ([1]; 72 h): > 50 µM; plasma half-life, times more than endogenous somatostatin [6]: 30 times; IC50 ([7]; 72 h): > 50 µM |
| CO[C@H]1C[C@H](O[C@H]2CC[C@]3(C)[C@H]4CC[C@]5(C)[C@@H](C6=CC(=O)OC6)CC[C@]5(O)[C@@H]4CC[C@]3(O)C2)O[C@H](C)[C@H]1O [PPM, periplocymarin] | 0.423 ± 0.087 g | irregularly arranged myocardial cells and slightly lymphocyte infiltration in the interstitial tissue of the myocardium | obvious soma shrinking, dissociation of hepatic cord, dilation of hepatic sinusoids and lymphocytosis | 62.43 ± 13.52 U/L | 68.21 ± 8.95 U/L | 184.23 ± 21.48 U/L | 1.692 ± 0.283 µg·h/g | 1.773 ± 0.393 µg·h/g | 1.967 ± 0.321 µg·h/g | 0.457 ± 0.092 µg·h/g | 0.812 ± 0.143 µg·h/g | 0.257 ± 0.086 µg·h/g | 0.614 µg·h/g and 0.614 ± 0.128 µg·h/g | 0.0359 µM | IC50 ([8]; Mus musculus): 0.0384 µM; IC50 ([5]; Homo sapiens, L02, MTT, 72 h of incubation, read-out: IC50 L-02): 0.128 µM; IC50 ([1]; Homo sapiens, HepG2, MTT, 72 h of incubation, read-out: IC50 HepG2): 0.138 µM; tumor inhibition rate ([2]; 4 mg/kg i.v. every other day, from tumor weights): 51.71%; average body weight ([3]; during treatment, vs control group, P < 0.01): less than that of the control group; IC50 ([7]; Homo sapiens, MCF7, 72 h, MTT, 72 h of incubation, read-out: IC50 MCF-7): 0.0359 µM; IC50 [9]: 0.02 to 0.29 µM; Kp at 15 min ([4]; male, Kunming, mouse, heart / blood, iv, 15 min post injection, i.v. 4 mg/kg, read-out: ratio of the PPM concentration in heart and blood): 1.18; Kp at 1 h ([4]; male, Kunming, mouse, heart / blood, iv, 1 h post injection, i.v. 4 mg/kg, read-out: ratio of the PPM concentration in heart and blood): 5.21; concentration at 15 min ([4]; male, Kunming, mouse, tumor, iv, 4 mg/kg, 15 min post injection): 917 ng/g |
| C[C@]12CC[C@H](O)C[C@@]1(O)CC[C@@H]1[C@@H]2CC[C@]2(C)[C@@H](C3=CC(=O)OC3)CC[C@]12O [periplogenin] | – | – | – | – | – | – | – | – | – | – | – | – | – | 0.901 µM | IC50 [8]: 0.509 µM; IC50 ([5]; MTT, 72 h of incubation, read-out: IC50 L-02): 0.406 µM; IC50 ([1]; MTT, 72 h of incubation, read-out: IC50 HepG2): 0.581 µM |
| Somatostatin [somatostatins] | – | – | – | – | – | – | – | – | – | – | – | – | – | – | half-life in circulation ([6]; in vivo): 1 to 3 min |
